This data set deals with PTPN22. The data set can be described thus: PTPN22 expression by western blot in shRNA-transduced RAMOS B cell line. It is filed as cell-based. The note with it: human RAMOS B cell line, GFP+ shRNA+ vs GFP-. The protocol: FIG. 10A depicts flow cytometry analysis of Ramos B cells transduction efficiency. Ramos B cells were transduced with three different GFP-tagged shRNA PTPN22 expressing lentiviruses and probed for GFP expression. […] Percentage of knock-down is indicated. FIG. 10B depicts the frequencies of polyreactive new emigrant B cells from sorted GFP− fractions were determined. […] For each B-cell fraction, the frequency of reactive (filled area) and non-reactive (open area) clones is summarized in pie charts with the total number of clones tested indicated in the center. FIG. 10C depicts the frequencies of HEp-2 reactive new emigrant B cells from sorted GFP− fractions were determined. […] For each B-cell fraction, the frequency of reactive (filled area) and non-reactive (open area) clones is summarized in pie charts with the total number of clones tested indicated in the center. FIG. 10D depicts the frequencies of antinuclear new emigrant B cells are compared between GFP− and GFP+ shRNA+ new emigrant B cells. […]
Total cell lysates were separated by SDS page, transferred to PVDF membranes, probed with mouse anti-PTPN22 (Invitrogen) and detected by chemiluminescence (Amersham ECL Prime Western Blotting detection Reagent) using a GBox documentation system (Syngene). For quantification, blots were stripped with stripping buffer (Pierce) and reprobed with a mouse anti-β-Actin antibody (Sigma-Aldrich).
For orientation: Immunoblotting shows a protein as a band on a membrane.

As to “#3: shRNA targeting human PTPN22, 5′-AAGAATCCACCTGACTTCC-3′”, the “inhibition of PTPN22 expression detected by western blot” value is “about 80%”.

(Values after patent US11311543B2, “Compositions and methods for inhibiting PTPN22” (YALE UNIVERSITY, priority 2016, dated 2022).)
